Reference: patent US7625891B2, “Heterocylic antiviral compounds” (Roche Palo Alto LLC, priority 2007, dated 2009)

Tests used:
[1] = target: T1, CCR5 (Homo sapiens, UniProt P51681); assay: Human CCR5 receptor-ligand binding assay (125I RANTES, CHO-Gα16-hCCR5 cells); parameters: expressed in transfected cells
Experimental: The construct was transfected into CHO-Gα16 cells by using Fugene Reagent (Roche).
Adherent cells in […] tissue culture flask (ca. 90% confluent) were harvested using 1 mM EDTA in PBS (phosphate-buffered saline) without Ca^2+ and Mg^2+. Cells were washed twice with PBS containing no Ca^2+ and Mg^2+.
Eighty μl CHO-Gα16-hCCR5 (1×10^6/mL) cells were added to 96 well plates.
The compound dilutions were made in PBS, 1% BSA. Total reaction volume was 100 μl per well. The test compounds were added to the cells prior to the addition of radioligand.
After incubation, the cells were harvested onto GF/C filter plates using Packard cell harvester. Filters were pretreated with 0.3% PEI/0.2% BSA for 30 min. The filter plate was washed rapidly 5 times with 25 mM HEPES, 500 mM NaCl, 1 mM CaCl2 and 5 mM MgCl2 adjusted to pH 7.1. Plates were dried in oven (70° C.) for 20 min, added with 40 μl scintillation fluid and sealed with Packard TopSeal-A. Packard Top Count was used to measure of the radioactivity for 1 min per well.
Total binding was determined with control wells added with radioisotope and buffer and the non-specific binding was determined using an excess cold RANTES to some of the control wells. Specific binding was determined by subtracting the non-specific form total binding. […] IC50 values were determined using varying concentrations of the test ligand in triplicates and the data was analyzed using GraphPad Prism (GraphPad, San Diego, Calif.).

[2] = test system: NLBal pseudotyped HIV-1; assay: microbe, parasite or virus in culture; type: cell-based; details: Human immunodeficiency virus 1, JC53BL, 72 h
Experimental: The sensitivity of a recombinant HIV-1 virus pseudotyped with the envelope proteins of the CCR5-tropic virus NLBal to test compounds was determined in a Luciferase reporter assay using JC53BL cells. NLBal pseudotyped HIV-1 was generated by calcium phosphate transfection of 293T cells (ATCC) with equal amounts of DNA of an envelope-deleted HIV-1 plasmid and of a NLBal envelope expression plasmid. The media (DMEM, 10% fetal bovine serum, 1% Penicillin/streptomycin, 1% Glutamine, all Gibco) was changed 16 h post-transfection and virus containing supernatant was harvested 48 h post-transfection. To determine the sensitivity of NLBal pseudotyped HIV-1, 25.000 JC53BL cells (NIH AIDS Reagent Program) were infected with NLBal pseudotyped HIV-1 in presence of a drug gradient in white 96 well plates (Greiner Bio-one). The volume was adjusted to 200 μL using assay media (DMEM, 10% fetal bovine serum, 1% Penicillin/streptomycin, 1% Glutamine). After incubation at 37° C., 90% relative humidity, 5% CO2 for 3 days, 50 μL of Steady-Glo® Luciferase reagent (Promega) was added, incubated for 5 min at RT and luminescence was measured using a luminometer (Luminoskan, Thermo). The 50% and 90% inhibitory concentrations were calculated using Microsoft XL Fit 4 software.

[3] = target: T1, CCR5; assay: CCR5-mediated CCF (cell-cell fusion) assay, Hela-R5 / CEM-NKr-CCR5-Luc, luciferase readout; type: cell-based; parameters: host or cells: CEM-NKr-CCR5-Luc cells; details: 24 hrs co-culture
Experimental: The capacity for novel compounds of the present invention to bind to the CCR5 receptor and thereby antagonize CCR5 function can be evaluated with assay systems known in the art. The capacity of compounds of the present invention to inhibit infection of CD4^+/CCR5^+ expressing cells can be determined using a cell-cell fusion assay as described in example 8 or an antiviral assay as described in example 9.
CCF assay was performed as described before (C. Ji, J. Zhang, N. Cammack and S. Sankuratri, J. Biomol. Screen. 2006 11(6):652-663). Hela-R5 cells (express gp160 from R5-tropic virus and HIV-1 Tat) were plated in 384 well white culture plates (BD Bioscience, Palo Alto, Calif.) at […] per well in phenol red-free Dulbecco's Modified Eagle Medium (DMEM) supplemented with 10% FBS, 1× Pen-Strep, 300 μg/mL G418, 100 μg/mL hygromycin, and 1 μg/mL Doxycycline (Dox) (BD Bioscience, Palo Alto, Calif.), using Multimek (Beckman, Fullerton, Calif.) and incubated at 37° C. overnight to induce the expression of gp160. Ten μL diluted compounds in medium containing 5% DMSO were added to the cells, followed by the addition of CEM-NKr-CCR5-Luc (obtained from NIH AIDS Research & Reference Reagents Program) that expresses CD4 and CCR5 and carries a […] long terminal repeat (LTR)-driven luciferase reporter gene at 1.5×10^4 cells/15 μL/well and incubated for 24 hrs. At the end of co-culture, 15 μL of Steady-Glo luciferase substrate was added into each well, and the cultures were sealed and gently shaken for 45 min. The luciferase activity were measured for 10 sec per well as luminescence by using 16-channel TopCount NXT (PerkinElmer, Shelton, CT) with 10 min dark adaptation and the readout is count per second (CPS). For the drug interaction experiments, small molecule compounds or antibodies were serially diluted in serum-free and phenol red-free RPMI containing 5% DMSO (CalBiochem, La Jolla, Calif.) and 1× Pen-Strep. Five μL each of the two diluted compound or mAb to be tested for drug-drug interactions were added to the Hela-R5 cells right before the addition of target cells.

[4] = test system: collagen-induced arthritis; details: collagen-induced arthritis model; cited from earlier work
[5] = test system: HIV; details: cited from earlier work
[6] = specific 125I RANTES binding, CHO-Gα16-hCCR5 cells, read-out: IC50

T1 sequence (P51681 whole entry): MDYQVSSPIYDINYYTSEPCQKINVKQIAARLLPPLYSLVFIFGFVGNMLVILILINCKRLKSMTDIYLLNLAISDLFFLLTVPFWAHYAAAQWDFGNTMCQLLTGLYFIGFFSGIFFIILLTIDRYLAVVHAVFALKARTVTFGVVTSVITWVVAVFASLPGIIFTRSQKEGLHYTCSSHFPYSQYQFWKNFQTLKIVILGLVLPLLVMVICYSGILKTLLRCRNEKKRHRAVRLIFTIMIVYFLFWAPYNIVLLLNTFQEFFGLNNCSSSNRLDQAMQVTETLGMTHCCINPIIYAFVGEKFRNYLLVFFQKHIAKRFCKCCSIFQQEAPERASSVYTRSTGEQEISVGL

CCCC[C@H]1CN(CC2COC3OCCC23)C(=O)OC12CCN(C1(C)CCN(C(=O)c3c(C)ncnc3C)CC1)CC2 (single isomer, unassigned) [II-6]
IC50 [1, 6]: 38 nM

CCCCC1CN(C[C@H]2CC[C@H](OC)CC2)C(=O)OC12CCN(C1(C)CCN(C(=O)c3c(C)ncnc3C)CC1)CC2 (stereo partly drawn) [Compound I-3, 5-Butyl-9-[1-(4,6-dimethyl-pyrimidine-5-carbonyl)-4-methyl-piperidin-4-yl]-3-(trans-4-methoxy-cyclohexylmethyl)-1-oxa-3,9-diaza-spiro[5.5]undecan-2-one]
melting point: 150.8 to 152.9 °C

CCCCC1CN(C[C@H]2CC[C@H](OCC)CC2)C(=O)OC12CCN(C1(C)CCN(C(=O)c3c(C)ncnc3C)CC1)CC2 (stereo partly drawn) [Compound I-7, 5-Butyl-9-[1-(4,6-dimethyl-pyrimidine-5-carbonyl)-4-methyl-piperidin-4-yl]-3-(trans-4-ethoxy-cyclohexylmethyl)-1-oxa-3,9-diaza-spiro[5.5]undecan-2-one]
melting point: 188.3 to 189.7 °C

CCCCC1CN(C[C@H]2CC[C@@H](OCOC)CC2)C(=O)OC12CCN(C1(C)CCN(C(=O)c3c(C)ncnc3C)CC1)CC2 (stereo partly drawn) [Compound I-8, 5-Butyl-9-[1-(4,6-dimethyl-pyrimidine-5-carbonyl)-4-methyl-piperidin-4-yl]-3-(cis-4-methoxymethoxy-cyclohexylmethyl)-1-oxa-3,9-diaza-spiro[5.5]undecan-2-one]
IC50 [2]: 5.2 nM

CCCC[C@H]1CN(C[C@H]2[C@@H]3COC[C@@H]32)C(=O)OC12CCN(C1(C)CCN(C(=O)c3c(C)cc(C(F)F)nc3C)CC1)CC2 [II-4]
IC50 [1, 6]: 10.8 nM

CCCC[C@H]1CN(C[C@H]2COCCO2)C(=O)OC12CCN(C1(C)CCN(C(=O)c3c(C)cc(C#N)nc3C)CC1)CC2 [II-10]
IC50 [2]: 2.6 nM
IC50 [3]: 1 nM
IC50 [1, 6]: 17.2 nM

CCCCC1CN(CC2CCN(C(C)=O)CC2)C(=O)OC12CCN(C1(C)CCN(C(=O)c3c(C)ncnc3C)CC1)CC2 (stereo not shown) [III-1, 3-(1-Acetyl-piperidin-4-ylmethyl)-5-butyl-9-[1-(4,6-dimethyl-pyrimidine-5-carbonyl)-4-methyl-piperidin-4-yl]-1-oxa-3,9-diaza-spiro[5.5]undecan-2-one]
IC50 [3]: 25.2 nM

CCCCC1CN(CC2CCCN(C(C)=O)C2)C(=O)OC12CCN(C1(C)CCN(C(=O)c3c(C)ncnc3C)CC1)CC2 (stereo not shown) [III-2]
IC50 [3]: 17.4 nM

CCCC[C@H]1CN(CC2CCN(C(=O)OC)CC2)C(=O)OC12CCN(C1(C)CCN(C(=O)c3c(C)ncnc3C)CC1)CC2 [III-6]
IC50 [1, 6]: 46.5 nM

CCCC[C@H]1CN(CC2CCN(CC(F)F)CC2)C(=O)OC12CCN(C1(C)CCN(C(=O)c3c(C)cc(C#N)nc3C)CC1)CC2 [III-12]
IC50 [1]: 49.4 nM

CCCC[C@H]1CN(C[C@H]2[C@@H]3CN(C(=O)OC)C[C@@H]32)C(=O)OC12CCN(C1(C)CCN(C(=O)c3c(C)noc3C(F)(F)F)CC1)CC2 [III-20]
IC50 [2]: 3 nM
IC50 [3]: < 2.5 nM
IC50 [1, 6]: 14 nM

CCCC[C@H]1CN(C[C@H]2C[C@H]3CC[C@@H](C2)N3C(=O)OC)C(=O)OC12CCN(C1(C)CCN(C(=O)c3c(C)ncnc3C)CC1)CC2 [III-22]
IC50 [2]: 2.2 nM
IC50 [3]: 3 nM
IC50 [1, 6]: 21.2 nM

CCCC[C@H]1CN(CC2CCN(S(C)(=O)=O)CC2)C(=O)OC12CCN(C1(C)CCN(C(=O)c3c(C)noc3C(F)(F)F)CC1)CC2 [III-23]
IC50 [2]: 6 nM
IC50 [3]: < 2.5 nM
IC50 [1, 6]: 38.8 nM

CCCC[C@H]1CN(C2CCC(F)(F)CC2)C(=O)OC12CCN(C1(C)CCN(C(=O)c3c(C)ncnc3C)CC1)CC2 [IV-7, (S)-5-Butyl-3-(4,4-difluoro-cyclohexyl)-9-[1-(4,6-dimethyl-pyrimidine-5-carbonyl)-4-methyl-piperidin-4-yl]-1-oxa-3,9-diaza-spiro[5.5]undecan-2-one]
IC50 [1, 6]: 19.2 nM

Cc1ccc(-c2ccc3c(c2)C=C(C(=O)Nc2ccc(C[N+](C)(C)C4CCOCC4)cc2)CCC3)cc1.[Cl-] [TAK-779]
incidence and severity of arthritis [4]: reduce both the incidence and severity of arthritis
infiltration of inflammatory CCR5+ T-cells into the joint [4]: inhibited

B1: RANTES: CC chemokine, naturally occurring ligand that can stimulate the CCR5 receptor (protein, UniProt P13501 24-91, looked up)
C-C motif chemokine 5: SPYSSDTTPCCFAYIARPLPRAHIKEYFYTSGKCSNPAVVFVTRKNRQVCANPEKKWVREYINSLEMS
HIV entry into the cells [5]: block HIV entry into the cells
